Reference: US20220401483A1, “COMBINATION OF A T CELL THERAPY AND (S)-3-[4-(4-MORPHOLIN-4-YLMETHYL-BENZYLOXY)-L-OXO-L,3-DIHYDRO-ISOINDOL-2-YL]-PIPERIDINE-2,6-DIONE” (Juno Therapeutics, Inc., priority 2019, published 2022)

Tests used:
Assay type in all cases: cell-based, human
Aiolos = test: Intracellular Aiolos expression in stimulated anti-CD19 CAR-expressing T cells (flow cytometry MFI)
Procedure: (§1) T cell compositions containing anti-CD19 CAR-expressing T cells were generated from leukapheresis samples from three healthy human adult donors by a process including immunoaffinity-based selection of T cells (including CD4+ and CD8+ cells) from the samples, resulting in two compositions, enriched for CD8+ and CD4+ cells, respectively. The cells were incubated in the presence of (S)-3-[4-(4-morpholin-4-ylmethyl-benzyloxy)-1-oxo-1,3-dihydro-isoindol-2-yl]-piperidine-2,6-dione (Compound A) or 3-(5-amino-2-methyl-4-oxo-4H-quinazolin-3-yl)-piperidine-2,6-dione (Compound B), and expression of the transcription factors Ikaros and Aiolos was assessed. Cells of the enriched CD4+ and CD8+ compositions were separately activated with anti-CD3/anti-CD28 beads and subjected to lentiviral transduction with a vector encoding an anti-CD19 CAR. The anti-CD19 CAR contained an anti-CD19 scFv derived from a murine antibody (variable region derived from FMC63), an immunoglobulin-derived spacer, a transmembrane domain derived from CD28, a costimulatory region derived from 4-1BB, and a CD3-zeta intracellular signaling domain. The expression construct in the viral vector further contained sequences encoding a truncated receptor, which served as a surrogate marker for CAR expression, which was separated from the CAR sequence by a T2A ribosome skip sequence. Transduced populations then were separately incubated in the presence of stimulating reagents for cell expansion. Expanded CD8+ and CD4+ cells were formulated and cryopreserved separately and stored. The cryopreserved CD4+ and CD8+ anti-CD19 CAR-expressing cells from each donor were thawed, and combined at approximately a 1:1 CAR+CD4+:CD8+ ratio prior to use. Approximately 2.5×10^5 cells of the generated CAR+ T cell composition were stimulated overnight with 1 μg/ml of a CAR-specific anti-idiotypic antibody in the presence of 3-(5-amino-2-methyl-4-oxo-4H-quinazolin-3-yl)-piperidine-2,6-dione (Compound B) or (S)-3-[4-(4-morpholin-4-ylmethyl-benzyloxy)-1-oxo-1,3-dihydro-isoindol-2-yl]-piperidine-2,6-dione (Compound A) at concentrations ranging from 10 to 10000 nM or a vehicle control overnight at 37° C., 5% C02. Following overnight incubation, anti-CD19 CAR-expressing T cells were stained with antibodies and analyzed by flow cytometry to assess intracellular levels of Ikaros and Aiolos in CD4+ CAR+ or CD8+ CAR+ cells, as measured by median fluorescence intensity (MFI). Median fluorescence intensity (MFI) values for Ikaros and Aiolos were normalized and calculated as a percentage relative to vehicle control. […] The EC50 for reducing Aiolos and Ikaros expression was calculated as determined from the concentration of the inhibitor that reduced Aiolos or Ikaros MFI to 50% of its maximal MFI in the absence of the inhibitor.

Ikaros = test: Intracellular Ikaros expression in stimulated anti-CD19 CAR-expressing T cells (flow cytometry MFI)
Procedure: as §1

RL tumor spheroids = test: RL tumor spheroid model with anti-CD19 CAR T cells; details: Day 4; 1 μM Compound B, 0.01 μM or 0.1 μM Compound A
Procedure: Cytolytic activity was also assessed in a spheroid model. About 5,000 RL cells were plated 48 hours prior to addition of 5,000 anti-CD19 CAR T cells (1:1 E:T ratio). Anti-CD19 CAR T cells were co-cultured with RL tumor spheroids, in the presence of Compound B (1 μM) or Compound A (0.001 μM, 0.01 μM or 0.1 μM)).

RL cells = test: Rescue of chronically stimulated CAR T cells cultured with RL cells; details: Compound B 1 μM, Compound A 0.001, 0.01 or 0.1 μM
Procedure: The RL cells were further used to assess the ability of immunomodulatory compounds to rescue or reverse the anti-CD19 CAR T cells from exhaustion. Anti-CD19 CAR-expressing T cells were stimulated under conditions to induce chronic stimulation and then were subsequently treated (rescue) with Compound B (1 μM) or Compound A (0.001 μM, 0.01 μM or 0.1 μM), or a vehicle control. Long-term, chronic stimulation was carried out by stimulation of CAR T cells with 30 μg/mL plate-bound anti-idiotypic (anti-ID) antibody for 6 days, substantially as described in Example 3. After the chronic stimulation, the CAR-T cells were cultured with RL cells in the presence of Compound B or Compound A. Cytolytic activity was assessed over time by measuring tumor cell number in the culture.

[1] = overnight incubation, 1 μg/ml anti-idiotypic antibody, average of donors (range, 95% confidence interval)

Cc1nc2cccc(N)c2c(=O)n1C1CCC(=O)NC1=O (stereo not drawn) [Compound B, 3-(5-amino-2-methyl-4-oxo-4H-quinazolin-3-yl)-piperidine-2,6-dione, reference compound]
intracellular Aiolos expression (Aiolos; 10 to 10000 nM, overnight): […] | EC50 (Aiolos; [1]): […] | intracellular Ikaros expression (Ikaros; 10 to 10000 nM, overnight): […] | EC50 (Ikaros; [1]): […] | sensitivity of RL tumor spheroids to compound (RL tumor spheroids): sensitive | CAR T cell cytolytic activity, RL cell growth (RL cells): substantially improved
